Counter-ions that a name gives are not always drawn. Like-named read-outs stand apart in the source and are kept apart here.

For 18 compounds, IC50 and activation results are on record in patent US8501750B2, “Heterocyclic compound and use thereof” (Takeda Pharmaceutical Company Limited, priority 2007, dated 2013).

One assay addresses AT1 receptor (Homo sapiens (Human), UniProt P30556). The assay is described as follows: AT1 receptor binding inhibitory action.
Another assay has as its target PPARγ (Homo sapiens (Human), UniProt P37231). As to the kind of experiment: PPARγ activating action (luciferase reporter in PPARγ:RXRα:4ERPP/CHO-K1 cells). The class given is cell-based. The following applies: CHO-K1, 24 h, read-out: PPARγ activating action (activation % (1 μM)). On the procedure:
Then the medium was removed from the 96-well half area white plate, 45 μl of Ham's F12 medium containing 0.1% fatty acid-free bovine serum albumin (BSA) and 5 μl of test compound were added, and the cells were cultured in a CO2 gas incubator at 37° C. for 1 day. The medium was removed and 20 μl of PicaGene 7.5 [manufactured by Dainippon Ink and Chemicals Corporation, Japan] diluted 2-fold with HBSS (HANKS' BALANCED SALT SOLUTION) [manufactured by BIO WHITTAKER, USA] was added. After stirring, the luciferase activity was determined using 1420 ARVO Multilabel Counter [manufactured by PerkinElmer, USA]. […] A CHO-K1 cell cultured in a 150 cm^2 cell culture flask [manufactured by Corning Costar Corporation, USA] containing Ham's F12 medium [manufactured by INVITROGEN, USA] supplemented with 10% fetal bovine serum [manufactured by INVITROGEN, USA] was scraped by treating with 0.5 g/L trypsin-0.2 g/L EDTA (ethylenediaminetetraacetic acid) [manufactured by Life Technologies, Inc., USA], and then the cell was washed with PBS (Phosphate-buffered saline) [manufactured by INVITROGEN, USA], centrifuged (1000 rpm, 5 minutes) and suspended in PBS. Subsequently, DNA was introduced into the cell under the conditions shown below using GENE PULSER [manufactured by Bio-Rad Laboratories, USA]. […] Subsequently, the cell was transferred into a F12 medium containing 10% fetal bovine serum and cultured for 24 hours, and then the cell was scraped again and centrifuged, and then suspended in Ham's F12 medium containing 10% fetal bovine serum supplemented with 500 μg/ml of Geneticin [manufactured by INVITROGEN, USA] and 250 μg/ml of Zeocin [manufactured by INVITROGEN, USA]. The obtained suspension was diluted to the density of 10^4 cells/ml and inoculated in a 96-well plate [manufactured by Corning Costar Corporation, USA], which was cultured in a CO2 gas incubator at 37° C., whereby obtaining a Geneticin- and Zeocin-resistant transformant.
For orientation: In a reporter assay the amount or activity of a reporter protein is the signal.

Where [1] appears, read: test compound 1 μM, luciferase activity relative to control compound X (1 μM) = 100%, non-administration group = 0%.

Sequence of AT1 receptor (P30556 whole entry): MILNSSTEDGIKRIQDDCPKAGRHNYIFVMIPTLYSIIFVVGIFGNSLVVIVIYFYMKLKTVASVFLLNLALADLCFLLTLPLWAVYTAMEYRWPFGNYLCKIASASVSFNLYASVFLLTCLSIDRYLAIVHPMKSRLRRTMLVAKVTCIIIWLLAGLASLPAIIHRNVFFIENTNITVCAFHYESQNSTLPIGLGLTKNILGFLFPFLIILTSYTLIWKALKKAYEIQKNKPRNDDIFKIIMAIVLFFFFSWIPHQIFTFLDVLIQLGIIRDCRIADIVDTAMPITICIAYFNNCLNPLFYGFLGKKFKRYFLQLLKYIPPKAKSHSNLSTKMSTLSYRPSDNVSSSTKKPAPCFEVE
Sequence of PPARγ (P37231 29-505): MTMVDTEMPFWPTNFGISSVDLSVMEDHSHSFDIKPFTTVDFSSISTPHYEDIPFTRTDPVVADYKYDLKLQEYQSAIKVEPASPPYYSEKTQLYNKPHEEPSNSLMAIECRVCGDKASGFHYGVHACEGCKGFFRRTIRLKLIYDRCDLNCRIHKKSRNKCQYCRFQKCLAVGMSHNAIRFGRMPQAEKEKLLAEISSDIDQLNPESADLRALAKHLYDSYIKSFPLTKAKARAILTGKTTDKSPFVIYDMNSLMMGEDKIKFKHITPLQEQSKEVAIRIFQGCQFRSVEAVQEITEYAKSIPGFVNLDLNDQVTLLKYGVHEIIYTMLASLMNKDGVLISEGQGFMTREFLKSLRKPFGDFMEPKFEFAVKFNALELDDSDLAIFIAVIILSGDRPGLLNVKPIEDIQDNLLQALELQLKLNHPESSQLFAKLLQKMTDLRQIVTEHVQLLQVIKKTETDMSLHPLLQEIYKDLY
Sequence of PPARγ (P19793 whole entry partner): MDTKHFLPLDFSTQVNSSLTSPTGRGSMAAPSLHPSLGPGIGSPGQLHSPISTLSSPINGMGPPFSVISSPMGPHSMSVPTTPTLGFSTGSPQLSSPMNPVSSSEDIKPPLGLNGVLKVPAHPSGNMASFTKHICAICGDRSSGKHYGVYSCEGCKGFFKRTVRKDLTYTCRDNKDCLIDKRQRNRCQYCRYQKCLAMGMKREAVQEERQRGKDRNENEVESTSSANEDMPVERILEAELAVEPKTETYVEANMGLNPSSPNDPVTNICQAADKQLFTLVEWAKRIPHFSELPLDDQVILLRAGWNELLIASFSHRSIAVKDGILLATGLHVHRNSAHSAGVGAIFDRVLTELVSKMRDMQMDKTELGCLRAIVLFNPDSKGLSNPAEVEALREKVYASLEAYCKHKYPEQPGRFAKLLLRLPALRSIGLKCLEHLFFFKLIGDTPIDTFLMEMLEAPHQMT

Regarding `COc1ccc(C(=O)Cn2c(=O)c3cc(C4CC4)sc3n(Cc3ccc(-c4ccccc4-c4noc(O)n4)cc3F)c2=O)cc1` [Ex. 105, 6-cyclopropyl-1-{[3-fluoro-2′-(5-oxo-4,5-dihydro-1,2,4-oxadiazol-3-yl)biphenyl-4-yl]methyl}-3-[2-(4-methoxyphenyl)-2-oxoethyl]thieno[2,3-d]pyrimidine-2,4(1H,3H)-dione potassium salt], on AT1 receptor, the IC50 – broadly, the concentration that inhibits the measured activity by half – came out at 1 nM. In addition, the activation at 1 µM at PPARγ came out at 34%.
The compound `O=c1[nH]c(-c2ccccc2-c2ccc(Cn3c(=O)n(CCc4cccc(F)c4)c(=O)c4cc(CC(F)(F)F)sc43)cc2)no1` [Ex. 60, 3-[2-(3-fluorophenyl)ethyl]-1-{[2′-(5-oxo-4,5-dihydro-1,2,4-oxadiazol-3-yl)biphenyl-4-yl]methyl}-6-(2,2,2-trifluoroethyl)thieno[2,3-d]pyrimidine-2,4(1H,3H)-dione] came in with an IC50 at AT1 receptor of 1 nM. Besides, the activation at 1 µM on PPARγ (setting [1]) was determined as 42%.
For `CCc1cc2c(=O)n(CC(=O)c3ccc(OC)cc3C)c(=O)n(Cc3ccc(-c4ccccc4-c4noc(=O)[nH]4)cc3)c2s1` [Ex. 76, 6-ethyl-3-[2-(4-methoxy-2-methylphenyl)-2-oxoethyl]-1-{[2′-(5-oxo-4,5-dihydro-1,2,4-oxadiazol-3-yl)biphenyl-4-yl]methyl}thieno[2,3-d]pyrimidine-2,4(1H,3H)-dione], the half-maximal inhibitory concentration (IC50) at AT1 receptor was 1 nM. At PPARγ (setting [1]), the activation at 1 µM is 27%.
In the same order, the values of `CCc1cc2c(=O)n(CC(O)c3ccc(OC)cc3)c(=O)n(Cc3ccc(-c4ccccc4-c4noc(=O)[nH]4)cc3F)c2s1` (stereo not drawn) [Ex. 152, 6-ethyl-1-{[3-fluoro-2′-(5-oxo-4,5-dihydro-1,2,4-oxadiazol-3-yl)biphenyl-4-yl]methyl}-3-[2-hydroxy-2-(4-methoxyphenyl)ethyl]thieno[2,3-d]pyrimidine-2,4(1H,3H)-dione] are 1.5 nM and 40%.
With `O=C(Cn1c(=O)c2cc(C3CC3)sc2n(Cc2ccc(-c3ccccc3-c3noc(=O)[nH]3)cc2)c1=O)c1ccc(F)cc1` [Ex. 63, 6-cyclopropyl-3-[2-(4-fluorophenyl)-2-oxoethyl]-1-{[2′-(5-oxo-4,5-dihydro-1,2,4-oxadiazol-3-yl)biphenyl-4-yl]methyl}thieno[2,3-d]pyrimidine-2,4(1H,3H)-dione], the concentration for half-maximal inhibition (IC50) on AT1 receptor turned out to be 1.1 nM. Also, the activation at 1 µM at PPARγ (setting [1]) amounted to 31%.
For `CCc1cc2c(=O)n(CC(=O)C34CC5CC(CC(C5)C3)C4)c(=O)n(Cc3ccc(-c4ccccc4-c4noc(=O)[nH]4)cc3)c2s1` [Ex. 132, 3-[2-(1-adamantyl)-2-oxoethyl]-6-ethyl-1-{[2′-(5-oxo-4,5-dihydro-1,2,4-oxadiazol-3-yl)biphenyl-4-yl]methyl}thieno[2,3-d]pyrimidine-2,4(1H,3H)-dione] the same measures were 1.7 nM and 50%.
In the case of `CCc1cc2c(=O)n(CC(=O)c3ccccc3OC)c(=O)n(Cc3ccc(-c4ccccc4-c4noc(O)n4)cc3)c2s1` [Ex. 109, 6-ethyl-3-[2-(2-methoxyphenyl)-2-oxoethyl]-1-{[2′-(5-oxo-4,5-dihydro-1,2,4-oxadiazol-3-yl)biphenyl-4-yl]methyl}thieno[2,3-d]pyrimidine-2,4(1H,3H)-dione potassium salt], the IC50 on AT1 receptor amounted to 1.4 nM. For the same compound, on PPARγ, the activation at 1 µM was 64%.
Take `CCc1cc2c(=O)n(CC(=O)C(C)(C)COC(C)=O)c(=O)n(Cc3ccc(-c4ccccc4-c4noc(=O)[nH]4)cc3)c2s1` [Ex. 148, 4-[6-ethyl-2,4-dioxo-1-{[2′-(5-oxo-4,5-dihydro-1,2,4-oxadiazol-3-yl)biphenyl-4-yl]methyl}-1,4-dihydrothieno[2,3-d]pyrimidin-3(2H)-yl]-2,2-dimethyl-3-oxobutyl acetate]: the 50% inhibitory concentration (IC50) on AT1 receptor is 1.5 nM. Moreover, the activation at 1 µM on PPARγ (setting [1]) was 33%.
In the case of `CCc1cc2c(=O)n(CC(=O)c3ccc(OC)c(F)c3)c(=O)n(Cc3ccc(-c4ccccc4-c4noc(=O)[nH]4)cc3F)c2s1` [Ex. 157, 6-ethyl-3-[2-(3-fluoro-4-methoxyphenyl)-2-oxoethyl]-1-{[3-fluoro-2′-(5-oxo-4,5-dihydro-1,2,4-oxadiazol-3-yl)biphenyl-4-yl]methyl}thieno[2,3-d]pyrimidine-2,4(1H,3H)-dione], the IC50 at AT1 receptor is 1.4 nM. The activation at 1 µM at PPARγ (setting [1]) came to 35%.
The compound `CCc1cc2c(=O)n(CC(OC(C)=O)c3ccc(OC)cc3)c(=O)n(Cc3ccc(-c4ccccc4-c4noc(=O)[nH]4)cc3F)c2s1` (stereo not drawn) [Ex. 153, 2-[6-ethyl-1-{[3-fluoro-2′-(5-oxo-4,5-dihydro-1,2,4-oxadiazol-3-yl)biphenyl-4-yl]methyl}-2,4-dioxo-1,4-dihydrothieno[2,3-d]pyrimidin-3(2H)-yl]-1-(4-methoxyphenyl)ethyl acetate] gave an IC50 on AT1 receptor of 1.3 nM. Besides, at PPARγ (setting [1]), the activation at 1 µM was found to be 39%.
For `CC(C)(C)C(=O)Cn1c(=O)c2cc(C3CC3)sc2n(Cc2ccc(-c3ccccc3-c3noc(=O)[nH]3)cc2)c1=O` [Ex. 186, 6-cyclopropyl-3-(3,3-dimethyl-2-oxobutyl)-1-{[2′-(5-oxo-4,5-dihydro-1,2,4-oxadiazol-3-yl)biphenyl-4-yl]methyl}thieno[2,3-d]pyrimidine-2,4(1H,3H)-dione], the half-maximal inhibitory concentration (IC50) at AT1 receptor amounted to 1.2 nM. Also, the activation at 1 µM at PPARγ (setting [1]) turned out to be 52%.
For `CCO/N=C(/Cn1c(=O)c2cc(CC)sc2n(Cc2ccc(-c3ccccc3-c3noc(=O)[nH]3)cc2)c1=O)c1ccc(OC)cc1` [Ex. 210, 3-[2-(ethoxyimino)-2-(4-methoxyphenyl)ethyl]-6-ethyl-1-{[2′-(5-oxo-4,5-dihydro-1,2,4-oxadiazol-3-yl)biphenyl-4-yl]methyl}thieno[2,3-d]pyrimidine-2,4(1H,3H)-dione] the same measures were 1.6 nM and 31%.
The compound `CCc1cc2c(=O)n(CC(C)(C)c3ccccc3)c(=O)n(Cc3ccc(-c4ccccc4-c4noc(=O)[nH]4)cc3)c2s1` [Ex. 225, 6-ethyl-3-(2-methyl-2-phenylpropyl)-1-{[2′-(5-oxo-4,5-dihydro-1,2,4-oxadiazol-3-yl)biphenyl-4-yl]methyl}thieno[2,3-d]pyrimidine-2,4(1H,3H)-dione] gave an IC50 at AT1 receptor of 1.6 nM. Further, at PPARγ (setting [1]), the activation at 1 µM turned out to be 39%.
As to `CCc1cc2c(=O)n(CC(=O)c3ccc(OC)cc3)c(=O)n(Cc3ccc(-c4ccccc4-c4noc(O)n4)cc3C)c2s1` [Ex. 116, 6-ethyl-3-[2-(4-methoxyphenyl)-2-oxoethyl]-1-{[3-methyl-2′-(5-oxo-4,5-dihydro-1,2,4-oxadiazol-3-yl)biphenyl-4-yl]methyl}thieno[2,3-d]pyrimidine-2,4(1H,3H)-dione potassium salt], the IC50 at AT1 receptor was 1.8 nM. For the same compound, at PPARγ, the activation at 1 µM is 38%.
At AT1 receptor, `CCc1cc2c(=O)n(CC(=NOC)c3ccccc3)c(=O)n(Cc3ccc(-c4ccccc4-c4noc(=O)[nH]4)cc3)c2s1` [Ex. 215, 6-ethyl-3-[2-(methoxyimino)-2-phenylethyl]-1-{[2′-(5-oxo-4,5-dihydro-1,2,4-oxadiazol-3-yl)biphenyl-4-yl]methyl}thieno[2,3-d]pyrimidine-2,4(1H,3H)-dione] yielded a half-maximal inhibitory concentration (IC50) of 1.3 nM. In addition, at PPARγ (setting [1]), the activation at 1 µM was 27%.
On to `COc1ccccc1C(=O)Cn1c(=O)c2cc(CC(F)(F)F)sc2n(Cc2c(F)cc(-c3ccccc3-c3noc(O)n3)cc2F)c1=O` [Ex. 127, 1-{[3,5-difluoro-2′-(5-oxo-4,5-dihydro-1,2,4-oxadiazol-3-yl)biphenyl-4-yl]methyl}-3-[2-(2-methoxyphenyl)-2-oxoethyl]-6-(2,2,2-trifluoroethyl)thieno[2,3-d]pyrimidine-2,4(1H,3H)-dione potassium salt], for which, at AT1 receptor, the IC50 amounted to 1.4 nM. The activation at 1 µM at PPARγ was found to be 53%.
Turning to `CCc1cc2c(=O)n(CC(=O)c3nc4ccccc4n3C)c(=O)n(Cc3ccc(-c4ccccc4-c4noc(=O)[nH]4)cc3)c2s1` [Ex. 140, 6-ethyl-3-[2-(1-methyl-1H-benzoimidazol-2-yl)-2-oxoethyl]-1-{[2′-(5-oxo-4,5-dihydro-1,2,4-oxadiazol-3-yl)biphenyl-4-yl]methyl}thieno[2,3-d]pyrimidine-2,4(1H,3H)-dione], at AT1 receptor, the IC50 amounted to 1.7 nM. Further, on PPARγ (setting [1]), the activation at 1 µM was 26%.
In the case of `CCc1cc2c(=O)n(CC(=O)c3ccc(OC)cc3)c(=O)n(Cc3ccc(-c4ccccc4-c4noc(=O)[nH]4)cc3F)c2s1` [Ex. 83, 6-ethyl-1-{[3-fluoro-2′-(5-oxo-4,5-dihydro-1,2,4-oxadiazol-3-yl)biphenyl-4-yl]methyl}-3-[2-(4-methoxyphenyl)-2-oxoethyl]thieno[2,3-d]pyrimidine-2,4(1H,3H)-dione], the IC50 on AT1 receptor is 0.77 nM. Besides, the activation at 1 µM on PPARγ (setting [1]) was determined as 37%.
